Results on 27 substances are retold here after paper PMC6881253, “The PCNA interaction motifs revisited: thinking outside the PIP-box” (Cellular and Molecular Life Sciences: CMLS, 2019).

Read-outs that look alike come from different tables or passages of the source. Ends that are not written are not given here.

As usually defined, the Kd is the concentration at which binding is half-saturated. As usually defined, the koff is a measure of how fast the partners let go of each other. A word on the kon: it is the second-order rate constant of association. Read a low kon as slow association.

In assay [1] the target is PCNA. Set-up: method as in 11 sources, ref PMID 15576034 ||| ref PMID 10858286 ||| ref PMID 23139781 ||| ref PMID 30655288 ||| ref PMID 28621305 ||| ... Particulars: ITC, cited from earlier work. (In ITC the heat of successive injections is recorded.)
The target in assay [2] is T1, human PCNA (Homo sapiens, UniProt P12004). Kind of assay: ITC, PCNA injected into peptide. The class given is binding.
Method: PCNA was buffer exchanged and concentrated using a 10000 MWCO filter (millipore) against the ITC buffer (10 mM HEPES, 150 mM NaCl, 1 mM EDTA, 1 mM TCEP, pH 7.4) for all experiments. The lyophilized peptides were dissolved in the ITC buffer at concentrations between 0.2 and 1 mM determined using A280. For all experiments, PCNA was injected into peptide. For p21^143–157 the peptide concentration was 10 µM, and the PCNA trimer concentration 40 µM. […] For experiments with S2, S1, and D1.2, the peptide concentrations were 20 µM, 60 µM, and 50 µM, respectively, and the PCNA trimer concentration 100 µM, 200 µM, and 269 µM, respectively. All buffer, protein, and peptide solutions were properly degassed prior to loading. ITC was performed with the microCal instrument ITC200 (Malvern). Data were recorded at 25 °C with a stirring speed of 307 rpm and a reference power of 10 µCal s^−1. The heat of dilution was determined from the final injections after saturation of the complex and was subtracted from the data for all peptides except S1 and D1.2 where saturation was not reached. Data from the ITC experiments were analyzed using the Origin 7 software package (MicroCal™). The data were fitted to a single binding site model.
All experiments were carried out in triplicates. […] In the case of the D1.2 peptide, the stoichiometry was kept constant at three peptides per PCNA molecule to achieve convergence in the fitting procedure.
Assay [3] addresses PCNA. Particulars: cited from earlier work. The text has this: Supplement 18_2019_3150_MOESM1_ESM.docx, table 2: Table S2: Binding affinities of curated PCNA binding proteins. | column: KD (M)
Assay [4] deals with T1, human PCNA. The assay is described as follows: SPR binding of peptides to His6-tagged PCNA captured by anti-His6 antibody. Particulars: for Kd: Table S2, SPR, pH 7.5, T 298, This work.
Method: A stock of > 100 µM PCNA in purification buffer was diluted to the working concentration of 200 nM in 10 mM NaH2PO4, 500 mM NaCl, pH 7.0, 1 mM β-mercaptoethanol. The peptides were dissolved in SPR running buffer (i.e., 10 mM HEPES, 150 mM NaCl, 0.05% (v/v) P20, pH 7.4).
Binding analyses were recorded on a Biacore T200™ instrument (GE Healthcare Life Sciences). A single cycle protocol setup was used for the injection of ligands in flow cells with PCNA captured by an anti-His antibody covalently coupled to a CM5 chip (GE Healthcare Life Sciences, Cat# BR100530). […] Remaining activated NHS-esters were blocked by injecting 35 µL 1 M ethanolamine, pH 8.5. All procedures were conducted at a flow rate of 5 µL min^−1. […] The control surface was not exposed to PCNA. […] The injection cycles alternated between injections cycles of buffer and peptide with no intervening regeneration. […] For the UNG2, APIM, and FEN1 measurements, a final injection cycle of p21 with a final concentration of 50 nM was run as a control of consistency. Complete regeneration of the flow cells between each single-cycle run was accomplished by injecting 10 mM glycine–HCl, pH 1.5 for 60 s with a flow rate of 30 µL min^−1. All measurements were carried out at 25 °C.
Fitting of the data by non-linear regression to a bimolecular interaction model, assuming pseudo-first order reaction condition yielded the association (kon) and dissociation (koff) rate constants. […] For runs with different capture levels of PCNA for each injection cycle, the responses were normalized to a common Rmax value. We used the evaluation software supplied with the instrument for global fitting (BiacoreT200 Evaluation 3.0).
The target in assay [5] is PCNA. Also on record: method as in 4 sources, one per row (each row's own in cited_ref): ref PMID 19208623 ||| ref PMID 8876181 ||| ref PMID 24728180 ||| ref PMID 10899134. To be noted: SPR, cited from earlier work. (In SPR one partner is held on a chip, and binding of the other changes the refractive index at the surface.)
Setting [6] is: pH 7.5, T 279, ref PMID 23677613.
Setting [7] is: pH 7.5, T 298, ref PMID 19208623.
The mark [8] stands for this setting: SPR single-cycle kinetics, bimolecular model, 10 mM HEPES, 150 mM NaCl, 0.05% P20, pH 7.4, 25 °C.
[9] abbreviates: pH 7.5, T 303, ref PMID 15576034.

T1 sequence (P12004 whole entry): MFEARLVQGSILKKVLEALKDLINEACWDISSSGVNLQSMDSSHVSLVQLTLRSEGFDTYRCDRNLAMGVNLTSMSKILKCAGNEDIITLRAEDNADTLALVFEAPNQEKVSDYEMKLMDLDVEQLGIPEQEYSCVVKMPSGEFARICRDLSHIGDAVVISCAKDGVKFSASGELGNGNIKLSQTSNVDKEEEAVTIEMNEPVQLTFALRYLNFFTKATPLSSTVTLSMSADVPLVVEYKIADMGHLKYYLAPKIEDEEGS

For the substance “RGQGSQRCIPEFFLAGKQPCTN [FBH1 52–72, literature FBH1 peptide]”, the Kd at PCNA [1] (setting [6]) was 0.25 µM.

As to “Ac-RKRRATSMTDFYHSKRRL-NH2 [p21^140–157,Q144A]”, the “fold drop in the affinity for PCNA on mutating Q at the first position to alanine” value on human PCNA [2] (ITC) amounted to 50 fold.

Take “PANGEQLHLVNYVEDTLDSIES [ING1 4–25, literature ING1 peptide]”: the Kd on PCNA [3] (NMR, pH 7, T 308, ref PMID 23139781) was 12500 µM.

In turn, Ac-TQGRLDDFFKVTGSL-NH2 [FEN1] displayed a Kd at human PCNA [4] of 44.9 µM.

On to “SKSRQGSTQGRLDDFF [FEN1 329–344, literature FEN1 peptide]”, for which the Kd at PCNA [5] (pH 7.4, T not given, ref PMID 24728180) was 0.0846 µM.

On to “PKWQKGIGEFFR [p15 59–70, literature p15(PAF) peptide]”, for which the Kd on PCNA [1] (pH 7, T 308, ref PMID 25762514) is 83 µM.

For “KQRVRVKTVPSLFQAKLD TFLWS [TRAIP 447–469, literature TRAIP peptide]”, the Kd at PCNA [1] (pH 7.4, T 298, ref PMID 26711499) is 30.7 µM.

Regarding “KTSPGRSVKEEAQNLIRHFFHGRARCES [RecQ5 952-979, literature RecQ5 peptide]”, the Kd at PCNA [1] (pH 7.0, T 308, ref PMID 30655288) is 210 µM.

On to “SQGRKRRQTSMTDFYHSKRR [p21 137–156, literature p21 peptide]”, for which the Kd on PCNA [5] (setting [7]) was 0.065 µM.

Regarding “p15 1–111: full-length p15(PAF) protein, literature”, the Kd is 0.11 µM on PCNA [1] (pH 7, T 298, ref PMID 25762514) and 2.5 µM on PCNA [1] (pH 7, T 308, ref PMID 25762514).

As for “CKRPRPEGMQTLESFFKPLTH [PolEta 694–713, literature DNA polymerase η peptide]”, the Kd on PCNA [5] (setting [7]) was 0.4 µM.

On human PCNA [4], Ac-MDRWLVKW-NH2 [APIM] registered a Kd of 10.9 µM.

Take “KDKFIRRWVHKEGFSG [FBH1 605-620, literature FBH1 peptide]”: the Kd at PCNA [1] (setting [6]) is 0.59 µM.

With Ac-RQTSMTDFYHSKRRL-NH2 [p21], at human PCNA [4] (setting [8]), the koff was found to be 0.14 ± 0.0003 s⁻¹ and the kon was 1.7e+06 ± 1e+10 M⁻¹ s⁻¹.

Regarding “GKANRQVSITGFFQRK* [p66Polδ 451–466, literature peptide of DNA polymerase δ p66 subunit]”, the Kd at PCNA [1] (setting [9]) was 15.6 µM.

For the substance “FTHFEKEKQHDIRSFFVPQPKK [ZRANB3 511–532, literature ZRANB3 PIP-box peptide]”, the Kd on PCNA [3] (method not given, pH 7.5, T 298, ref PMID 28621305) is 4.8 µM.

In turn, Ac-RQSTLYSFFPKSPAL-NH2 [MSH6] came in with a Kd at human PCNA [4] of 2.61 µM.

Turning to MGRKRLITDSYPVVKRREG [p12 1-19], the Kd was 38 µM on PCNA [1] (pH 7.0, T 298, ref PMID 30655288) and 130 µM at PCNA [3] (NMR, pH 7.0, T 308, ref PMID 30655288).

Regarding “QVRRQSLASKHGSDITRFLVKK [ZRANB3 1058–79, literature ZRANB3 APIM peptide]”, the Kd on PCNA [1] (pH not given, T 298, ref PMID 28621305) was 9.2 µM.

“QHGKKDSKITDHFMRLPKA [PARG 402–420, literature PARG peptide]”: the Kd on PCNA [1] (pH 7.4, T 298, ref PMID 28934471) was 3.3 µM.

In the case of “MDRFLVKGAQGGLLRK [ABH2 1-16, literature ABH2 APIM peptide]”, on PCNA [1] (setting [6]), the Kd was 0.32 µM.

Regarding Ac-RKRRQGRLDDFFHSKRRL-NH2, the “fold change (increase) of affinity for PCNA on grafting p21 flanking regions to Fen1” value at human PCNA [2] (ITC, versus Fen1 peptide) came out at 60 fold.

On to Ac-SESSQTSMTDFYHSKRRL-NH2 [S1], for which the Kd at human PCNA [2] (10 mM HEPES, 150 mM NaCl, 1 mM EDTA, 1 mM TCEP, pH 7.4, 25 °C, one set of sites, mean of triplicates) turned out to be 8.3 ± 1.9 µM.

In the case of “KRRQTSMTDFYH [p21 141–152, literature p21 peptide]”, the Kd at PCNA [1] (pH 7, T 303, ref PMID 23139781) was 0.625 µM; at PCNA [1] (pH 7, T 308, ref PMID 23139781), 1.1 µM.

As to MIGQKTLYSFFTPSP [UNG2], binding at human PCNA [4] was put at a Kd of 34.1 µM.

Consider “RQGSTQGRLDDFFKVTGSLSSA [FEN1 332–353, literature FEN1 peptide]”, for which, on PCNA [1] (setting [9]), the Kd is 59 µM.

With “PRPEGMQTLESFFKPLTH* [PolEta 696–713, literature DNA polymerase η peptide]”, the Kd at PCNA [1] (pH 7.4, T 298, ref PMID 26903512) was 11 µM.
